Assay results: PubChem BioAssay (NCI)
Where “and” joins values, the source holds several entries; their conditions need not be identical. Identical values can stand only once.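 Test compounds were applied to cells in 96-well plates for 48 hours at 5 doses. Abbreviation: GI50, concentration required for 50% inhibition of growth. TGI denotes the concentration required for complete inhibition of growth.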

How the values were obtained:
Test in all cases: NCI tumour cell line growth inhibition, 48 h
NCI-H23 lung = system: NCI-H23 lung
K-562 leukemia = system: K-562 leukemia
SK-MEL-2 melanoma = system: SK-MEL-2 melanoma
HOP-62 NSCLC = system: HOP-62 NSCLC
EKVX NSCLC = system: EKVX NSCLC
MDA-MB-231 breast = system: MDA-MB-231 breast
SN12C renal = system: SN12C renal
MDA-MB-435 = system: MDA-MB-435
NCI-H460 lung = system: NCI-H460 lung
OVCAR-5 ovarian = system: OVCAR-5 ovarian
HT29 colon = system: HT29 colon
SNB-75 CNS = system: SNB-75 CNS
RPMI-8226 leukemia = system: RPMI-8226 leukemia
OVCAR-3 ovarian = system: OVCAR-3 ovarian
A498 renal = system: A498 renal
MCF7 breast = system: MCF7 breast
UO-31 renal = system: UO-31 renal
UACC-257 melanoma = system: UACC-257 melanoma
HCT-116 colon = system: HCT-116 colon
SR leukemia = system: SR leukemia
SK-MEL-5 melanoma = system: SK-MEL-5 melanoma
NCI-H226 lung = system: NCI-H226 lung
T-47D breast = system: T-47D breast
HOP-92 NSCLC = system: HOP-92 NSCLC
SF-268 CNS = system: SF-268 CNS
SK-MEL-28 melanoma = system: SK-MEL-28 melanoma
COLO 205 colon = system: COLO 205 colon
SW-620 colon = system: SW-620 colon
MALME-3M melanoma = system: MALME-3M melanoma
HCT-15 colon = system: HCT-15 colon
MOLT-4 leukemia = system: MOLT-4 leukemia
LOX IMVI melanoma = system: LOX IMVI melanoma
HL-60(TB) leukemia = system: HL-60(TB) leukemia
SF-539 CNS = system: SF-539 CNS
ACHN renal = system: ACHN renal
DU-145 prostate = system: DU-145 prostate
HCC-2998 colon = system: HCC-2998 colon
SK-OV-3 ovarian = system: SK-OV-3 ovarian
CCRF-CEM leukemia = system: CCRF-CEM leukemia
SNB-19 CNS = system: SNB-19 CNS
NCI-H522 lung = system: NCI-H522 lung
OVCAR-8 ovarian = system: OVCAR-8 ovarian
786-0 renal = system: 786-0 renal
HS 578T breast = system: HS 578T breast
NCI/ADR-RES ovarian = system: NCI/ADR-RES ovarian
RXF 393 renal = system: RXF 393 renal
TK-10 renal = system: TK-10 renal
M14 melanoma = system: M14 melanoma
BT-549 breast = system: BT-549 breast
KM12 colon = system: KM12 colon
OVCAR-4 ovarian = system: OVCAR-4 ovarian
PC-3 prostate = system: PC-3 prostate
UACC-62 melanoma = system: UACC-62 melanoma
SF-295 CNS = system: SF-295 CNS
CAKI-1 renal = system: CAKI-1 renal
A549 NSCLC = system: A549 NSCLC
U251 CNS = system: U251 CNS

## Nc1cc2c([nH]c[n+]2CC#CCCl)c(SCC#CCCl)n1
NCI-H23 lung
  GI50: 1230 nM
  TGI: 2620 nM
K-562 leukemia
  GI50: 1970 nM
  TGI: > 100000 nM
SK-MEL-2 melanoma
  GI50: 1650 nM
  TGI: 4470 nM
HOP-62 NSCLC
  GI50: 1400 nM
  TGI: 2990 nM
EKVX NSCLC
  GI50: 1250 nM
  TGI: 2760 nM
MDA-MB-231 breast
  GI50: 1390 nM
  TGI: 3200 nM
SN12C renal
  GI50: 1160 nM
  TGI: 3420 nM
MDA-MB-435
  GI50: 1090 nM
  TGI: 2630 nM
NCI-H460 lung
  GI50: 374 nM
  TGI: 1500 nM
OVCAR-5 ovarian
  GI50: 2130 nM
  TGI: 3680 nM
HT29 colon
  GI50: 883 nM
  TGI: 2520 nM
SNB-75 CNS
  GI50: 1140 nM
  TGI: 2400 nM
RPMI-8226 leukemia
  GI50: 1000 nM
  TGI: 6570 nM
OVCAR-3 ovarian
  GI50: 592 nM
  TGI: 1960 nM
A498 renal
  GI50: 1100 nM
  TGI: 2440 nM
MCF7 breast
  GI50: 442 nM
  TGI: 2180 nM
UO-31 renal
  GI50: 763 nM
  TGI: 2330 nM
UACC-257 melanoma
  GI50: 821 nM
  TGI: 2740 nM
HCT-116 colon
  GI50: 738 nM
  TGI: 2350 nM
SR leukemia
  GI50: 336 nM
  TGI: 16400 nM
SK-MEL-5 melanoma
  GI50: 1190 nM
  TGI: 2430 nM
NCI-H226 lung
  GI50: 1220 nM
  TGI: 4120 nM
T-47D breast
  GI50: 1120 nM
  TGI: 2450 nM
HOP-92 NSCLC
  GI50: 1840 nM
  TGI: 3860 nM
SF-268 CNS
  GI50: 552 nM
  TGI: 2010 nM
SK-MEL-28 melanoma
  GI50: 1340 nM
  TGI: 2750 nM
COLO 205 colon
  GI50: 1460 nM
  TGI: 2900 nM
SW-620 colon
  GI50: 1170 nM
  TGI: 2700 nM
MALME-3M melanoma
  GI50: 1090 nM
  TGI: 3170 nM
HCT-15 colon
  GI50: 1220 nM
  TGI: 2890 nM
MOLT-4 leukemia
  GI50: 1320 nM
  TGI: > 100000 nM
LOX IMVI melanoma
  GI50: 363 nM
  TGI: 1440 nM
HL-60(TB) leukemia
  GI50: 388 nM
  TGI: 2640 nM
SF-539 CNS
  GI50: 1620 nM
  TGI: 3240 nM
ACHN renal
  GI50: 580 nM
  TGI: 2940 nM
DU-145 prostate
  GI50: 1050 nM
  TGI: 2340 nM
HCC-2998 colon
  GI50: 1770 nM
  TGI: 3170 nM
SK-OV-3 ovarian
  GI50: 1370 nM
  TGI: 2810 nM
CCRF-CEM leukemia
  GI50: 562 nM
  TGI: > 100000 nM
SNB-19 CNS
  GI50: 1400 nM
  TGI: 2840 nM
NCI-H522 lung
  GI50: 522 nM
  TGI: 2080 nM
OVCAR-8 ovarian
  GI50: 1620 nM
  TGI: 6020 nM
786-0 renal
  GI50: 1270 nM
  TGI: 3050 nM
HS 578T breast
  GI50: 1690 nM
  TGI: 7470 nM
NCI/ADR-RES ovarian
  GI50: 1710 nM
  TGI: 4240 nM
RXF 393 renal
  GI50: 1200 nM
  TGI: 2560 nM
TK-10 renal
  GI50: 1420 nM
  TGI: 3040 nM
M14 melanoma
  GI50: 1110 nM
  TGI: 2490 nM
BT-549 breast
  GI50: 1150 nM
  TGI: 2420 nM
KM12 colon
  GI50: 1250 nM
  TGI: 2680 nM
OVCAR-4 ovarian
  GI50: 1570 nM
  TGI: 7170 nM
PC-3 prostate
  GI50: 1400 nM
  TGI: 4340 nM
UACC-62 melanoma
  GI50: 455 nM
  TGI: 1860 nM
SF-295 CNS
  GI50: 1540 nM
  TGI: 3080 nM
CAKI-1 renal
  GI50: 331 nM
  TGI: 1360 nM

## CC(C)c1cc(C(=O)N2Cc3ccc(CN4CCN(C)CC4)cc3C2)c(O)cc1O
NCI-H23 lung
  GI50: 60.6 nM and 458 nM
  TGI: 97400 nM and > 53900 nM
K-562 leukemia
  GI50: 47.2 nM and 207 nM
  TGI: > 100000 nM and 16200 nM
SK-MEL-2 melanoma
  GI50: 736 nM and 710 nM
  TGI: 4780 nM and 20100 nM
HOP-62 NSCLC
  GI50: 128 nM and 656 nM
  TGI: > 92200 nM
EKVX NSCLC
  GI50: 983 nM and 1270 nM
  TGI: > 100000 nM
MDA-MB-231 breast
  GI50: 390 nM and 443 nM
  TGI: 24800 nM and 13700 nM
SN12C renal
  GI50: 106 nM and 498 nM
  TGI: > 100000 nM
MDA-MB-435
  GI50: 51.4 nM and 137 nM
  TGI: 21100 nM and 13400 nM
NCI-H460 lung
  GI50: 31.1 nM and 53.4 nM
  TGI: 16200 nM and 11600 nM
OVCAR-5 ovarian
  TGI: > 100000 nM
HT29 colon
  GI50: 42.8 nM and 58 nM
  TGI: > 32800 nM and 12600 nM
SNB-75 CNS
  GI50: 1270 nM and 2190 nM
  TGI: 46700 nM and > 57300 nM
RPMI-8226 leukemia
  TGI: > 100000 nM and 30200 nM
OVCAR-3 ovarian
  GI50: 79.3 nM and 452 nM
  TGI: 23400 nM and 20900 nM
A498 renal
  TGI: > 100000 nM and 15200 nM
MCF7 breast
  GI50: 25.4 nM and 48.4 nM
  TGI: 24100 nM and 30500 nM
UO-31 renal
  GI50: 59.1 nM and 296 nM
  TGI: 23600 nM and 18100 nM
UACC-257 melanoma
  GI50: 95.4 nM and 484 nM
  TGI: 4460 nM and 15200 nM
HCT-116 colon
  GI50: 39.4 nM and 81.8 nM
  TGI: 15300 nM and 13400 nM
SR leukemia
  GI50: 37.1 nM and 59.3 nM
  TGI: 84000 nM and 17100 nM
SK-MEL-5 melanoma
  GI50: 163 nM and 459 nM
  TGI: 17300 nM and 16500 nM
NCI-H226 lung
  GI50: 414 nM and 553 nM
  TGI: > 60300 nM and 50600 nM
T-47D breast
  GI50: 63.1 nM and 342 nM
  TGI: 31200 nM and 34800 nM
HOP-92 NSCLC
  GI50: 617 nM and 498 nM
  TGI: 35300 nM and 11000 nM
SF-268 CNS
  TGI: 59100 nM and 54300 nM
SK-MEL-28 melanoma
  GI50: 98.3 nM and 536 nM
  TGI: 18300 nM and 15800 nM
COLO 205 colon
  GI50: 42.2 nM and 44.4 nM
SW-620 colon
  GI50: 37.6 nM and 55.7 nM
  TGI: 23600 nM and 14800 nM
MALME-3M melanoma
  GI50: 40.3 nM and 271 nM
  TGI: 1260 nM and 1660 nM
HCT-15 colon
  GI50: 62.2 nM and 145 nM
  TGI: > 100000 nM and 21800 nM
MOLT-4 leukemia
  GI50: 47.3 nM and 177 nM
  TGI: > 66400 nM and 20700 nM
LOX IMVI melanoma
  GI50: 55 nM and 177 nM
  TGI: 369 nM and 2520 nM
HL-60(TB) leukemia
  GI50: 47.9 nM and 212 nM
  TGI: 16200 nM and 11600 nM
SF-539 CNS
  GI50: 1500 nM and 1000 nM
  TGI: 24300 nM and 18000 nM
ACHN renal
  GI50: 66.1 nM and 210 nM
  TGI: > 100000 nM
DU-145 prostate
  GI50: 74.1 nM and 55.3 nM
  TGI: 24400 nM and 18800 nM
HCC-2998 colon
  GI50: 45.5 nM and 213 nM
SK-OV-3 ovarian
  GI50: 31.5 nM and 64.4 nM
  TGI: 54000 nM and 18800 nM
CCRF-CEM leukemia
  GI50: 73.7 nM and 106 nM
  TGI: > 100000 nM and 30200 nM
A549 NSCLC
  GI50: 44 nM and 238 nM
  TGI: > 46000 nM and 37100 nM
SNB-19 CNS
  GI50: 872 nM and 847 nM
  TGI: > 100000 nM
NCI-H522 lung
  GI50: 45.4 nM and 291 nM
  TGI: 3200 nM and 18000 nM
OVCAR-8 ovarian
  GI50: 60.4 nM and 300 nM
  TGI: > 100000 nM
U251 CNS
  GI50: 86.3 nM and 320 nM
  TGI: > 50500 nM and 19600 nM
786-0 renal
  GI50: 1930 nM and 640 nM
  TGI: 30500 nM and 21000 nM
HS 578T breast
  GI50: 716 nM and 1870 nM
  TGI: 35300 nM and 43900 nM
NCI/ADR-RES ovarian
  GI50: 245 nM and 779 nM
  TGI: > 90000 nM
RXF 393 renal
  GI50: 916 nM and 2360 nM
  TGI: 30500 nM and 28800 nM
TK-10 renal
  GI50: 42.8 nM and 381 nM
  TGI: 49800 nM
M14 melanoma
  GI50: 65.9 nM and 334 nM
  TGI: 15600 nM and 14600 nM
BT-549 breast
  GI50: 15900 nM and 2390 nM
  TGI: > 100000 nM and 30400 nM
KM12 colon
  GI50: 29.1 nM and 77.2 nM
OVCAR-4 ovarian
  GI50: 5790 nM and 6390 nM
  TGI: > 100000 nM
PC-3 prostate
  GI50: 1970 nM and 483 nM
  TGI: > 100000 nM
UACC-62 melanoma
  GI50: 69.7 nM and 286 nM
  TGI: 15400 nM and 3910 nM
SF-295 CNS
  GI50: 37.1 nM and 158 nM
  TGI: 2060 nM and 3240 nM
CAKI-1 renal
  GI50: 52.2 nM and 512 nM
